Literature values, collected in patent publication US20190000808A1, “COMPOSITION AND METHODS FOR THE TREATMENT OF BLEPHOPHAROPTOSIS” (Allergan, Inc., priority 2015, published 2019).

Experiments:
[1] = tested on: alpha-1 adrenergic receptors on Muller's muscle; conditions: single drop, typically 2.5%; temporary reversal of ptosis

SMILES	tolerability (accommodation of the eye; topical concentrations above 0.5%, side effects red eyes, ocular pain, brow ache, headache)	effect on accommodation of the eye (accommodation of the eye; topical concentrations below 0.5%)	eyelid elevation [1]
CC[C@@H]1C(=O)OC[C@@H]1Cc1cncn1C [Pilocarpine, (3S,4R)-3-Ethyl-4((1-methyl-1H-imidazol-5-yl)methyl)dihydrofuran-2(3H)-one]	not tolerated	minimal effect	
CNC[C@H](O)c1cccc(O)c1 [phenylephrine]			causes eyelid elevation
